According to publication PMC6941952, “A homogeneous bioluminescent immunoassay to probe cellular signaling pathway regulation” (Communications Biology, 2020):
Where “and” joins values, the source holds several entries; their conditions need not be identical. Equal entries are not always repeated.

System: total IκBα
Assay: NanoBiT cell-based immunoassay, total IκBα in MCF-7 cells
Parameters: species or system human
Details: for Total IkB Average / Average / IkB Average: background subtracted; for Raw data / Subtract background / Average: Figure 2d; for Average IKB (background subtracted) / Raw data IKB / Subtract reagent background IKB: 30 min, MCF-7, Fig 7a; for IkB Average / IKB Raw data / IKB Subtract reagent background: without CHX
Protocol: Prior to NanoBiT Cell-Based Immunoassay, 50,000 cells were seeded in 160 µl of complete growth media per well of a 96-well plate and incubated overnight. […] If necessary, the cell culture media were replaced with serum-free media after the cells were stably adherent on the plate and incubated overnight. To treat cells with activators or inhibitors, medium was changed to 30 µl of medium containing inhibitors. If activation of a specific pathway is needed, the cells were stimulated with 10 µl of medium containing activators. To lyse the cells, 10 µl of lysis buffer containing 0.1% digitonin diluted in 1X immunoassay buffer with protease and phosphatase inhibitors was added and the plates were mixed vigorously for 20 min. Then, 50 µl of an antibody mix containing two primary antibodies against the target protein and NanoBiT detecting antibodies (0.3 µl each per well), diluted in 1X immunoassay buffer was added to the lysates. The plates were incubated at 23 °C for 90 min, followed by the addition of 25 µl of Nano-Glo® reagent consisting of Nano-Glo® Luciferase Assay Substrate mixed with 1X immunoassay buffer. Luminescence was measured using a plate-reading luminometer.
Single dose or dose response inhibitor treatments were performed prior to activation of the pathways as follows. For IκBα, the cells were treated in 30 µl medium with IKK16 or MG132 for 60 min before the addition of 10 µl of DMEM containing appropriate concentration of TNFα. To measure phosphorylation of AKT or STAT3, the corresponding NanoBiT immunoassays were developed with MCF-7 or A431 cells, respectively, according the same scheme used to develop the IκBα assay using the primary antibodies for AKT and STAT3 described in the reagents section. […] Treatment with LY294002 was performed in 30 µl medium and cells were incubated for 60 min before the addition of 1 µM Insulin. To measure STAT3 phosphorylation, A431 cells were incubated overnight in DMEM medium without serum. […] After addition of the stimulators, the cells were incubated for additional times as follows. IκBα phosphorylation and degradation analyses required both time courses and single time points as described in figures. […] The NanoBiT immunoassay protocol was followed as described above.
All 96-well assay plates were read using a GloMax® 96 Microplate Luminometer from Promega. The instrument was set to 0.5 s integration time. In order to obtain net change of signal, the reagent background values (signal from the well containing all reagent except primary antibodies) were subtracted from the sample values. To plot and analyze the data, Microsoft Excel and GraphPad Prism® Software were used. IC50 values were determined by using a nonlinear regression fit to a sigmoidal dose response (variable slope).

[1] = Figure 3a and 3b, listed as TNF
[2] = No MG132, TNF 2 min, listed as TNF
[3] = No MG132, TNF 4 min, listed as TNF
[4] = No MG132, TNF 6 min, listed as TNF
[5] = No MG132, TNF 8 min, listed as TNF
[6] = No MG132, TNF 10 min, listed as TNF
[7] = No MG132, TNF 12 min, listed as TNF
[8] = No MG132, TNF 15 min, listed as TNF
[9] = No MG132, TNF 30 min, listed as TNF
[10] = TNF 0.00038147 ng/ml, listed as TNF
[11] = TNF 0.00152588 ng/ml, listed as TNF
[12] = TNF 0.00610352 ng/ml, listed as TNF
[13] = TNF 0.0244141 ng/ml, listed as TNF
[14] = TNF 0.0976562 ng/ml, listed as TNF
[15] = TNF 0.390625 ng/ml, listed as TNF
[16] = TNF 1.5625 ng/ml, listed as TNF

TNFα
Total IkB Average (Figure 3a and 3b): 42170
Total IkB Raw data [1]: 63440 and 64850 and 64790
Total IkB Subtract reagent background [1]: 42600 and 41250 and 42660
Raw data (Cell # 3500, listed as TNF): 18670 and 18820
Subtract background (Cell # 3500, listed as TNF): 4540 and 4140
Raw data (Cell # 7000, listed as TNF): 18660 and 18670
Subtract background (Cell # 7000, listed as TNF): 4530 and 3990
Raw data (Cell # 14000, listed as TNF): 18430 and 19060
Subtract background (Cell # 14000, listed as TNF): 4300 and 4380
Raw data (Cell # 21000): 19110
Subtract background (Cell # 21000, listed as TNF): 4980 and 4430
Raw data (Cell # 28000, listed as TNF): 20250 and 19900
Subtract background (Cell # 28000, listed as TNF): 6120 and 5220
Raw data (Cell # 35000, listed as TNF): 20910 and 20760
Subtract background (Cell # 35000, listed as TNF): 6780 and 6080
Raw data (Cell # 42000, listed as TNF): 21720 and 21040
Subtract background (Cell # 42000, listed as TNF): 7590 and 6360
Raw data (Cell # 49000, listed as TNF): 22850 and 23430
Subtract background (Cell # 49000, listed as TNF): 8720 and 8750
Raw data (Cell # 56000, listed as TNF): 23160 and 23600
Subtract background (Cell # 56000, listed as TNF): 9030 and 8920
Raw data (Cell # 63000, listed as TNF): 26970 and 26330
Subtract background (Cell # 63000, listed as TNF): 12840 and 11650
Average (Cell # 3500): 4340
Average (Cell # 7000): 4260
Average (Cell # 14000): 4340
Average (Cell # 21000): 4705
Average (Cell # 28000): 5670
Average (Cell # 35000): 6430
Average (Cell # 42000): 6975
Average (Cell # 49000): 8735
Average (Cell # 56000): 8975
Average (Cell # 63000): 12245
Total IkB Average (No MG132, TNF 2 min): 63885
Total IkB Raw data [2]: 78720 and 79300 and 81370 and 83380
Total IkB Subtract reagent background [2]: 61913 and 62493 and 64563 and 66573
Total IkB Average (No MG132, TNF 4 min): 62935
Total IkB Raw data [3]: 77560 and 79450 and 81310 and 80650
Total IkB Subtract reagent background [3]: 60753 and 62643 and 64503 and 63843
Total IkB Average (No MG132, TNF 6 min): 62480
Total IkB Raw data [4]: 79920 and 79580 and 79430 and 78220
Total IkB Subtract reagent background [4]: 63113 and 62773 and 62623 and 61413
Total IkB Average (No MG132, TNF 8 min): 58228
Total IkB Raw data [5]: 76120 and 76190 and 73510 and 74320
Total IkB Subtract reagent background [5]: 59313 and 59383 and 56703 and 57513
Total IkB Average (No MG132, TNF 10 min): 52595
Total IkB Raw data [6]: 72590 and 72810 and 65780 and 66430
Total IkB Subtract reagent background [6]: 55783 and 56003 and 48973 and 49623
Total IkB Average (No MG132, TNF 12 min): 41533
Total IkB Raw data [7]: 62400 and 61420 and 53610 and 55930
Total IkB Subtract reagent background [7]: 45593 and 44613 and 36803 and 39123
Total IkB Average (No MG132, TNF 15 min): 29070
Total IkB Raw data [8]: 51070 and 48840 and 41650 and 41950
Total IkB Subtract reagent background [8]: 34263 and 32033 and 24843 and 25143
Total IkB Average (No MG132, TNF 30 min): 9615
Total IkB Raw data [9]: 28150 and 26460 and 25400 and 25680
Total IkB Subtract reagent background [9]: 11343 and 9653 and 8593 and 8873
Average IKB (background subtracted) (TNF 0.00038147 ng/ml): 68883
Raw data IKB [10]: 80810 and 81860 and 75990
Subtract reagent background IKB [10]: 70140 and 71190 and 65320
Average IKB (background subtracted) (TNF 0.00152588 ng/ml): 65947
Raw data IKB [11]: 78690 and 78640 and 72520
Subtract reagent background IKB [11]: 68020 and 67970 and 61850
Average IKB (background subtracted) (TNF 0.00610352 ng/ml): 63850
Raw data IKB [12]: 76470 and 76630 and 70460
Subtract reagent background IKB [12]: 65800 and 65960 and 59790
Average IKB (background subtracted) (TNF 0.0244141 ng/ml): 59300
Raw data IKB [13]: 73310 and 70780 and 65820
Subtract reagent background IKB [13]: 62640 and 60110 and 55150
Average IKB (background subtracted) (TNF 0.0976562 ng/ml): 52567
Raw data IKB [14]: 65850 and 63760 and 60100
Subtract reagent background IKB [14]: 55180 and 53090 and 49430
Average IKB (background subtracted) (TNF 0.390625 ng/ml): 37353
Raw data IKB [15]: 46770 and 47240 and 50060
Subtract reagent background IKB [15]: 36100 and 36570 and 39390
Average IKB (background subtracted) (TNF 1.5625 ng/ml): 21387
Raw data IKB [16]: 30440 and 30700 and 35030
Subtract reagent background IKB [16]: 19770 and 20030 and 24360
Average IKB (background subtracted) (TNF 6.25 ng/ml): 12817
Raw data IKB (TNF 6.25 ng/ml, listed as TNF): 23480 and 22250 and 24730
Subtract reagent background IKB (TNF 6.25 ng/ml, listed as TNF): 12810 and 11580 and 14060
Average IKB (background subtracted) (TNF 25 ng/ml): 10187
Raw data IKB (TNF 25 ng/ml, listed as TNF): 20190 and 20330 and 22050
Subtract reagent background IKB (TNF 25 ng/ml, listed as TNF): 9520 and 9660 and 11380
Average IKB (background subtracted) (TNF 100 ng/ml): 9587
Raw data IKB (TNF 100 ng/ml, listed as TNF): 19860 and 20090 and 20820
Subtract reagent background IKB (TNF 100 ng/ml, listed as TNF): 9190 and 9420 and 10150
IkB Average (TNF 5 min): 50908
IKB Raw data (TNF 5 min, listed as TNF): 65320 and 61760 and 61990 and 62780
IKB Subtract reagent background (TNF 5 min, listed as TNF): 53265 and 49705 and 49935 and 50725
IkB Average (TNF 10 min): 31425
IKB Raw data (TNF 10 min, listed as TNF): 42500 and 40590 and 43600 and 47230
IKB Subtract reagent background (TNF 10 min, listed as TNF): 30445 and 28535 and 31545 and 35175
IkB Average (TNF 20 min): 10930
IKB Raw data (TNF 20 min, listed as TNF): 21120 and 20330 and 22530 and 27960
IKB Subtract reagent background (TNF 20 min, listed as TNF): 9065 and 8275 and 10475 and 15905
IkB Average (TNF 30 min): 8948
IKB Raw data (TNF 30 min, listed as TNF): 19500 and 19660 and 20770 and 24080
IKB Subtract reagent background (TNF 30 min, listed as TNF): 7445 and 7605 and 8715 and 12025
IkB Average (TNF 40 min): 12565
IKB Raw data (TNF 40 min, listed as TNF): 24080 and 23090 and 23770 and 27540
IKB Subtract reagent background (TNF 40 min, listed as TNF): 12025 and 11035 and 11715 and 15485
IkB Average (TNF 60 min): 23095
IKB Raw data (TNF 60 min, listed as TNF): 35230 and 33190 and 36060 and 36120
IKB Subtract reagent background (TNF 60 min, listed as TNF): 23175 and 21135 and 24005 and 24065
IkB Average (TNF 80 min): 35000
IKB Raw data (TNF 80 min, listed as TNF): 46920 and 46230 and 46940 and 48130
IKB Subtract reagent background (TNF 80 min, listed as TNF): 34865 and 34175 and 34885 and 36075
IkB Average (TNF 100 min): 40533
IKB Raw data (TNF 100 min, listed as TNF): 53930 and 50010 and 52000 and 54410
IKB Subtract reagent background (TNF 100 min, listed as TNF): 41875 and 37955 and 39945 and 42355
IkB Average (TNF 120 min): 41718
IKB Raw data (TNF 120 min, listed as TNF): 56260 and 53820 and 52280 and 52730
IKB Subtract reagent background (TNF 120 min, listed as TNF): 44205 and 41765 and 40225 and 40675
